Source: patent US20130035326A1 (AMBIT BIOSCIENCES CORPORATION, priority 2009, published 2013)

How the values were obtained:
[1] = molecular target: T1, CSF-1R kinase (Homo sapiens, UniProt P07333); assay: Competition binding assay, CSF-1R Kd
T1 construct: made in house; host or cells: T7 phage display or HEK-293 cells
In short: (§1)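 Kinases expressed as T7 phage fusions or in HEK-293 cells with DNA tags competed with test compound for immobilized biotinylated affinity ligand on streptavidin beads. Binding ran 1 hour at room temperature in SeaBlock/PBS/Tween/DTT buffer. Bound kinase was eluted with non-biotinylated ligand and quantified by qPCR; Kd from eleven-point threefold dilutions.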

[2] = molecular target: T2, FLT3 kinase (Homo sapiens, UniProt P36888); assay: Competition binding assay, FLT3 Kd
T2 construct: made in house; host or cells: T7 phage display or HEK-293 cells
T2 sequence (P36888 27-993): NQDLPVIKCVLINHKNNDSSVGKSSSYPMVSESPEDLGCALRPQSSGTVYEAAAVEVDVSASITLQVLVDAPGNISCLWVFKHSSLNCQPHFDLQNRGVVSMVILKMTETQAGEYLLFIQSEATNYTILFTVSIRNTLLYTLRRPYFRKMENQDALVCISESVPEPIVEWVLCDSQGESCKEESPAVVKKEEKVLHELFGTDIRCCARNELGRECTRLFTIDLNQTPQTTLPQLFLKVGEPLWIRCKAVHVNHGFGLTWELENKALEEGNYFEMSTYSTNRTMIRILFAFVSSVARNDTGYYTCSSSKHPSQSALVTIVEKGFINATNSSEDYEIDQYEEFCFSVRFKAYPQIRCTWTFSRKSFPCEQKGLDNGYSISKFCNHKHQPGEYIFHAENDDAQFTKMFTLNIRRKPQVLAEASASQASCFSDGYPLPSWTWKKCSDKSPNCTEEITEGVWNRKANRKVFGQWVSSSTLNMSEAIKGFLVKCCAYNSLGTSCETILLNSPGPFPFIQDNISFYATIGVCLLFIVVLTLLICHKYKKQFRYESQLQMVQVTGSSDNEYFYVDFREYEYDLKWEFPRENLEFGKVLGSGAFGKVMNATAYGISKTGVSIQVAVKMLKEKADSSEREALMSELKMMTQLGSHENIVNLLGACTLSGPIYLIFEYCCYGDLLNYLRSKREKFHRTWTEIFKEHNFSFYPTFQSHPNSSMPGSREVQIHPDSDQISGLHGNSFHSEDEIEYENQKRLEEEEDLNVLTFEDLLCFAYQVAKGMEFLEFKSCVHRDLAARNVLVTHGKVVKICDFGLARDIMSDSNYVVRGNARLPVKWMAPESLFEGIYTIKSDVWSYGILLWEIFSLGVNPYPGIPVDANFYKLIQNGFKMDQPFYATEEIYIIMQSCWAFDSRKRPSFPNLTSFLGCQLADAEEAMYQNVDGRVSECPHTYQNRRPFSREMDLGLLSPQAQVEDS
In short: as §1

[3] = molecular target: kinase panel containing either 359 or 386 distinct kinases; assay: Selectivity score S10 from competition binding against a panel of kinases; conditions: compounds at 10 μM; for Kinase specificty: S(10)-359 panel: panel of 359 distinct kinases; for Kinase specificty: S(10)-386 panel: panel of 386 distinct kinases
In short: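 Compounds were tested at 10 μM in competition binding against T7 phage-fused or HEK-293-expressed DNA-tagged kinases with immobilized affinity ligands, 1 h at room temperature. Bound kinase was quantified by qPCR as percent of DMSO control; S10 is the fraction of distinct kinases (mutants excluded) with POC below 10.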

[4] = molecular target: T3, KIT kinase (Homo sapiens, UniProt P10721); assay: Competition binding assay, KIT Kd
T3 construct: made in house; host or cells: T7 phage display or HEK-293 cells
In short: as §1

[5] = test system: MV4-11 cells; assay: MV4-11 cell proliferation assay (Alamar Blue); assay type: cell-based; conditions: Homo sapiens, MV4-11, 72 h, 3 days incubation
In short: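 Viability readout: Alamar Blue fluorescence, ex 560/em 590 nm, 3 h after reagent addition, after 3-day exposure of 64,000 MV4-11 cells per well to a 9-point half-log compound series in 0.5% FBS Iscove's. IC50 from duplicate averages, as 50% proliferation inhibition relative to negative control.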

T1 sequence (P07333 20-972): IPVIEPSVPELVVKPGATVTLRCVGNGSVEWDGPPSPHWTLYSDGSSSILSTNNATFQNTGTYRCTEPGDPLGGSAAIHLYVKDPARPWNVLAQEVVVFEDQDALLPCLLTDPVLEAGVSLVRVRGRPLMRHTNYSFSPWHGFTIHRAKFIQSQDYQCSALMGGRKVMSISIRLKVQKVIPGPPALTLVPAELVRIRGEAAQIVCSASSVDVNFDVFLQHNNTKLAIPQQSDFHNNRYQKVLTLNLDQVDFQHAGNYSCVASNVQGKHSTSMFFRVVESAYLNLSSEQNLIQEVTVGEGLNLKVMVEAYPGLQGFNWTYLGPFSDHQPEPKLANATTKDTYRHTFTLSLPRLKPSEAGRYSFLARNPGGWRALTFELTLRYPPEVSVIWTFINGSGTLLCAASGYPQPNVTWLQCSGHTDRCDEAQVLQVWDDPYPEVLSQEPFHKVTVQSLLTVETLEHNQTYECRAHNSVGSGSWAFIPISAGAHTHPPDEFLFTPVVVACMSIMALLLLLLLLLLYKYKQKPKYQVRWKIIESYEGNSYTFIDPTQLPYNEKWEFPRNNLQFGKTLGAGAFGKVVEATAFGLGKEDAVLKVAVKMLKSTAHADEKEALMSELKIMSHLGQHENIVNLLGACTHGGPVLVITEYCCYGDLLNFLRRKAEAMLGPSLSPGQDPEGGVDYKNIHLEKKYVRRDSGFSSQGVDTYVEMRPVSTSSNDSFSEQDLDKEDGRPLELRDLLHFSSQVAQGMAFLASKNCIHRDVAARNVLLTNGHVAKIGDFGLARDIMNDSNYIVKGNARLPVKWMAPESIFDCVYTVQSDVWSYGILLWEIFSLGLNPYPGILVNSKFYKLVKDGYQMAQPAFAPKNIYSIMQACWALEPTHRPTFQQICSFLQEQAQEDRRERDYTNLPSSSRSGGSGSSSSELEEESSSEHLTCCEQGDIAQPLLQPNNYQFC
T3 sequence (P10721 26-976): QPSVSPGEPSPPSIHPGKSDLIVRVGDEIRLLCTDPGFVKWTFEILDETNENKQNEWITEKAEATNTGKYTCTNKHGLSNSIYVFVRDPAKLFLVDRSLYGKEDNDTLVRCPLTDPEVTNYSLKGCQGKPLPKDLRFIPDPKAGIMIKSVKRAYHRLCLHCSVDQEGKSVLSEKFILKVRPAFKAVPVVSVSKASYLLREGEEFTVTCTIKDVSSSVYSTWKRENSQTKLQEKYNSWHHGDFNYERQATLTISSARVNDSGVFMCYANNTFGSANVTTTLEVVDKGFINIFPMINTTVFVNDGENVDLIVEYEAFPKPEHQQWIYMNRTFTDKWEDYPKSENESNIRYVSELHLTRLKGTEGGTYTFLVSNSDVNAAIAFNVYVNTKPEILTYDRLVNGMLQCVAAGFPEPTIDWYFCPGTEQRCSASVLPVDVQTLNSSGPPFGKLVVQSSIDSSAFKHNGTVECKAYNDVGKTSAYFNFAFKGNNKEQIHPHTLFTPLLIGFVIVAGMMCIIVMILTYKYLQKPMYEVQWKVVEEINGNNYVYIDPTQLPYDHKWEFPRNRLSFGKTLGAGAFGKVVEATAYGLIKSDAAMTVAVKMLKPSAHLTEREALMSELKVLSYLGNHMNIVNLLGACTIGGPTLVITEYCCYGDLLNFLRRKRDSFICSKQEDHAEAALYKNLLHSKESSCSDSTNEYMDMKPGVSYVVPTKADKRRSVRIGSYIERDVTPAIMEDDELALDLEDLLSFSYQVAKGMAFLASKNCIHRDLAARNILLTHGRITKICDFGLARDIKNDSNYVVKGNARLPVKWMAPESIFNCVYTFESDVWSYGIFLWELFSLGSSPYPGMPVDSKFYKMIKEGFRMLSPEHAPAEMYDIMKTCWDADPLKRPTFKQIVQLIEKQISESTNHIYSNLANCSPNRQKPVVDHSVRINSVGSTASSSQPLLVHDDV

SMILES	Kd [1] [nM]	Kd [2] [nM]	Kinase specificty: S(10)-359 panel [3]	Kd [4] [nM]	IC50 [5] [nM]	Kinase specificty: S(10)-386 panel [3]
CC(C)(C)c1cc(NC(=O)Nc2ccc(-c3cnc(CCCN4CCOCC4)nc3)cc2)no1 [Example 56, 1-(5-tert-butylisoxazol-3-yl)-3-(4-(2-(3-morpholinopropyl)pyrimidin-5-yl)phenyl)urea]	≤ 10	≤ 1	A (A≦0.1)	1 to 10	10 to 100	–
CN(C)CCNc1ncc(-c2ccc(NC(=O)Nc3cc(C(C)(C)C)on3)cc2)cn1 [Example 57, 1-(5-tert-butylisoxazol-3-yl)-3-(4-(2-(2-(dimethylamino)ethylamino)pyrimidin-5-yl)phenyl)urea]	≤ 10	≤ 1	A (A≦0.1)	≤ 1	10 to 100	–
COCCNc1ncc(-c2ccc(NC(=O)Nc3cc(C(C)(C)C)on3)cc2)cn1 [Example 58, 1-(5-tert-butylisoxazol-3-yl)-3-{4-[2-(2-methoxyethylamino)pyrimidin-5-yl]-phenyl}urea]	≤ 10	≤ 1	B (0.1<B≦0.2 nM)	≤ 1	1 to 10	–
CC(C)(C)c1cc(NC(=O)Nc2ccc(-c3cnc(NCCN4CCOCC4)nc3)cc2F)no1 [Example 59]	≤ 10	≤ 1	B (0.1<B≦0.2 nM)	≤ 1	1 to 10	–
CC(C)(C)c1cc(NC(=O)Nc2ccc(-c3cnc(NCCN4CCCCC4)nc3)cc2)no1 [Example 60, 1-(5-tert-butylisoxazol-3-yl)-3-(4-(2-(2-(piperidin-1-yl)ethylamino)pyrimidin-5-yl)phenyl)urea]	≤ 10	≤ 1	B (0.1<B≦0.2 nM)	1 to 10	10 to 100	–
CC(C)(C)c1cc(NC(=O)Nc2ccc(-c3cnc(NCCN4CCOCC4)nc3)cn2)no1 [Example 61, 1-(5-tert-butylisoxazol-3-yl)-3-{5-[2-(2-morpholin-4-yl-ethylamino)pyrimidin-5-yl]pyridin-2-yl}urea]	≤ 10	≤ 1	A (A≦0.1)	≤ 1	10 to 100	–
CC(C)(C)Nc1ncc(-c2ccc(NC(=O)Nc3cc(C(C)(C)C)on3)nc2)cn1 [Example 62, 1-(5-(2-(tert-butylamino)pyrimidin-5-yl)pyridin-2-yl)-3-(5-tert-butylisoxazol-3-yl)urea]	10 to 100	1 to 10	A (A≦0.1)	1 to 10	100 to 500	–
CC(C)(C)c1cc(NC(=O)Nc2ccc(-c3cnc(NC4CCOCC4)nc3)cn2)no1 [Example 63, 1-(5-tert-butylisoxazol-3-yl)-3-(5-(2-(tetrahydro-2H-pyran-4-ylamino)pyrimidin-5-yl)pyridin-2-yl)urea]	≤ 10	≤ 1	B (0.1<B≦0.2 nM)	≤ 1	10 to 100	–
CC(C)(C)c1cc(NC(=O)Nc2ccc(-c3cnc(NC4CC4)nc3)cn2)no1 [Example 64, 1-(5-tert-butylisoxazol-3-yl)-3-[5-(2-cyclopropylaminopyrimidin-5-yl)-pyridin-2-yl]-urea]	≤ 10	≤ 1	B (0.1<B≦0.2 nM)	≤ 1	10 to 100	–
CC(C)Nc1ncc(-c2ccc(NC(=O)Nc3cc(C(C)(C)C)on3)nc2)cn1 [Example 65, 1-(5-tert-butylisoxazol-3-yl)-3-(5-(2-(isopropylamino)pyrimidin-5-yl)pyridin-2-yl)urea]	≤ 10	≤ 1	B (0.1<B≦0.2 nM)	≤ 1	10 to 100	–
O=C(Cc1cccc(C(F)(F)F)c1)Nc1ccc(-c2cnc(NC3CC3)nc2)cn1 [Example 66, N-(5-(2-(cyclopropylamino)pyrimidin-5-yl)pyridine-2-yl)-2-(3-(trifluoromethyl)phenyl)acetamide]	≤ 10	1 to 10	A (A≦0.1)	≤ 1	100 to 500	–
CC(C)Nc1ncc(-c2ccc(NC(=O)Cc3cccc(C(F)(F)F)c3)nc2)cn1 [Example 67, N-(5-(2-(isopropylamino)pyrimidin-5-yl)pyridin-2-yl)-2-(3-(trifluoromethyl)phenyl)acetamide]	10 to 100	1 to 10	A (A≦0.1)	≤ 1	10 to 100	–
Nc1ccc(-c2ccc(CC(=O)Nc3cc(C4(C(F)(F)F)CC4)on3)cc2)cn1 [Example 73, 2-(4-(6-aminopyridin-3-yl)phenyl)-N-(5-(1-(trifluoromethyl)cyclopropyl)isoxazol-3-yl)acetamide]	≤ 10	≤ 1	–	1 to 10	≤ 1	A (A≦0.1)
CC(C)(C)c1cc(NC(=O)Cc2ccc(-c3ccc(N)nc3)cc2F)no1 [Example 78, 2-(4-(6-aminopyridin-3-yl)-2-fluorophenyl)-N-(5-tert-butylisoxazol-3-yl)acetamide]	≤ 10	≤ 1	–	1 to 10	≤ 1	B (0.1<B≦0.2 nM)
CC(C)(C)c1cc(NC(=O)Cc2ccc(-c3ccc(NCCS(C)(=O)=O)nc3)cc2)no1.CS(=O)(=O)O [Example 92, 5-(4-(2-(5-tert-butylisoxazol-3-ylamino)-2-oxoethyl)phenyl)-N-(2-(methylsulfonyl)ethyl)pyridin-2-aminium methanesulfonate]	≤ 10	≤ 1	–	1 to 10	1 to 10	B (0.1<B≦0.2 nM)
CC(C)(C)c1cc(NC(=O)Cc2ccc(-c3cnc(N)c(F)c3)cc2)no1.CS(=O)(=O)O [Example 94, 5-(4-(2-(5-tert-butylisoxazol-3-ylamino)-2-oxoethyl)phenyl)-3-fluoropyridin-2-aminium methanesulfonate]	≤ 10	1 to 10	–	1 to 10	≤ 1	B (0.1<B≦0.2 nM)
CC(C)(C)c1cc(NC(=O)Cc2ccc(-c3ccc(N)nc3F)cc2)no1.CS(=O)(=O)O [Example 95, 5-(4-(2-(5-tert-butylisoxazol-3-ylamino)-2-oxoethyl)phenyl)-6-fluoropyridin-2-aminium methanesulfonate]	≤ 10	≤ 1	–	1 to 10	≤ 1	A (A≦0.1)
CC(C)(C)c1cc(NC(=O)Cc2ccc(-c3ccc(NCCN4CCOCC4)nc3)cc2)on1.CS(=O)(=O)O [Example 96, 5-(4-(2-(3-tert-butylisoxazol-5-ylamino)-2-oxoethyl)phenyl)-N-(2-morpholinoethyl)pyridin-2-aminium methanesulfonate]	≤ 10	≤ 1	–	≤ 1	1 to 10	B (0.1<B≦0.2 nM)
CC(C)(CF)c1cc(NC(=O)Nc2ccc(-c3ccc(N)nc3)cc2)on1 [Example 97, 1-(4-(6-aminopyridin-3-yl)phenyl)-3-(3-(1-fluoro-2-methylpropan-2-yl)isoxazol-5-yl)urea]	≤ 10	1 to 10	–	1 to 10	1 to 10	A (A≦0.1)
